Source: US20230250106A1, “COMPOUNDS AND COMPOSITIONS FOR TREATING CONDITIONS ASSOCIATED WITH STING ACTIVITY” (IFM Due, Inc., priority 2020, published 2023)

tested on: STING pathway; assay: STING reporter assay: luciferase reporter activity in THP1-Dual KO-IFNAR2 cells activated with 2'3'cGAMP; assay type: cell-based; settings: Homo sapiens, 2'3'cGAMP 15 μM, 24 h, read-out: hSTING EC50
Experimental: STING pathway activation by the compounds described herein was measured using THP1-Dual™ cells (KO-IFNAR2).
THP1-Dual™ KO-IFNAR2 Cells (obtained from invivogen) were maintained in RPMI, 10% FCS, 5 ml P/S, 2 mM L-glut, 10 mM Hepes, and 1 mM sodium pyruvate. Compounds were spotted in empty 384 well tissue culture plates (Greiner 781182) by Echo for a final concentration of 0.0017-100 μM. Cells were plated into the TC plates at 40 μL per well, 2×10E6 cells/mL. For activation with STING ligand, 2′3′cGAMP (MW 718.38, obtained from Invivogen), was prepared in Optimem media.
The following solutions were prepared for each 1×384 plate: • Solution A: 2 mL Optimem with one of the following stimuli: • 60 μL of 10 mM 2′3′cGAMP→150 μM stock • Solution B: 2 mL Optimem with 60 μL Lipofectamine 2000→Incubate 5 min at RT
2 mL of solution A and 2 ml Solution B was mixed and incubated for 20 min at room temperature (RT). 20 μL of transfection solution (A+B) was added on top of the plated cells, with a final 2′3′cGAMP concentration of 15 μM. The plates were then centrifuged immediately at 340 g for 1 minute, after which they were incubated at 37° C., 5% CO2,>98% humidity for 24 h. Luciferase reporter activity was then measured. EC50 values were calculated by using standard methods known in the art.
Luciferase reporter assay: 10 μL of supernatant from the assay was transferred to white 384-plate with flat bottom and squared wells. One pouch of QUANTI-Luc™ Plus was dissolved in 25 mL of water. 100 μL of QLC Stabilizer per 25 mL of QUANTI-Luc™ Plus solution was added. 50 μL of QUANTI-Luc™ Plus/QLC solution per well was then added. Luminescence was measured on a Platereader (e.g., Spectramax I3X (Molecular Devices GF3637001)).
Luciferase reporter activity was then measured. EC50 values were calculated by using standard methods known in the art.

**Q.** For `O=C(Nc1c[nH]c2cc(F)c(F)cc12)c1cnc(OCCC(F)(F)F)c(F)c1` [Compound 140, N-(5,6-difluoro-1H-indol-3-yl)-5-fluoro-6-(3,3,3-trifluoropropoxy)nicotinamide], which EC50 is on record?
**A.** Its EC50 is 200 to 1000 nM.

**Q.** How did the EC50 turn out when `O=C(Nc1c[nH]c2cc(F)c(F)cc12)c1ccc(N2C[C@@H]3[C@@H](COCC(F)(F)F)[C@@H]3C2)c(F)c1` [Compound 227, N-(5,6-difluoro-1H-indol-3-yl)-3-fluoro-4-((1R,5S,6r)-6-((2,2,2-tifluoroethoxy)methyl)-3-azabicyclo[3.1.0]hexan-3-yl)benzamide] was run?
**A.** Its EC50 is 40 to 200 nM.

**Q.** Which EC50 does the source give for `CC(C)n1cc(-c2ccc3[nH]cc(NC(=O)c4cnc(N5CCC(F)(F)CC5)c(Cl)c4)c3c2)cn1` [Compound 102, 5-chloro-6-(4,4-difluoropiperidin-1-yl)-N-(5-(1-isopropyl-1H-pyrazol-4-yl)-1H-indol-3-yl)nicotinamide] here?
**A.** Its EC50 is 200 to 1000 nM.

**Q.** With `COCCOc1ncc(C(=O)Nc2c[nH]c3cc(F)c(F)cc23)cc1C` [Compound 226, N-(5,6-difluoro-1H-indol-3-yl)-6-(2-methoxyethoxy)-5-methylnicotinamide] as the compound, how does the EC50 read?
**A.** The EC50 was 200 to 1000 nM.

**Q.** With `CC1(c2ccc(C(=O)Nc3c[nH]c4cc(F)c(F)cc34)cn2)CCN(CC(F)(F)F)CC1` [Compound 218, N-(5,6-difluoro-1H-indol-3-yl)-6-(4-methyl-1-(2,2,2-trifluoroethyl)piperidin-4-yl)nicotinamide] as the compound, how does the EC50 read?
**A.** The EC50 was 200 to 1000 nM.

**Q.** With `O=C(Nc1c[nH]c2cc(F)c(F)cc12)c1cnc(CN2CCC(F)(F)CC2)c(Cl)c1` [Compound 254, 5-chloro-N-(5,6-difluoro-1H-indol-3-yl)-6-((4,4-difluoropiperidin-1-yl)methyl)nicotinamide] as the compound, how does the EC50 read?
**A.** The EC50 was 200 to 1000 nM.

**Q.** For `N#Cc1cc(C(=O)Nc2c[nH]c3cc(F)c(F)cc23)ccc1N1CCC(F)(F)CC1` [Compound 188, 3-cyano-N-(5,6-difluoro-1H-indol-3-yl)-4-(4,4-difluoropiperidin-1-yl)benzamide], which EC50 is on record?
**A.** Its EC50 is 200 to 1000 nM.

**Q.** With `O=C(Nc1c[nH]c2ncc(F)cc12)c1ccc(OCCCC(F)(F)F)c(F)c1` [Compound 144, 3-fluoro-N-(5-fluoro-1H-pyrrolo[2,3-b]pyridin-3-yl)-4-(4,4,4-trifluorobutoxy)benzamide] as the compound, how does the EC50 read?
**A.** The EC50 was 1000 to 5000 nM.

**Q.** For `N#CC1(c2ccc(C(=O)Nc3c[nH]c4cc(F)c(F)cc34)cc2)CCC(F)(F)CC1` [Compound 213, 4-(1-cyano-4,4-difluorocyclohexyl)-N-(5,6-difluoro-1H-indol-3-yl)benzamide], which EC50 is on record?
**A.** The EC50 was 200 to 1000 nM.

**Q.** For `O=C(Nc1c[nH]c2cc(F)c(F)cc12)c1ccc(OC(F)(F)F)nc1` [Compound 197, N-(5,6-difluoro-1H-indol-3-yl)-6-(trifluoromethoxy)pyridine-3-carboxamide], which EC50 is on record?
**A.** The EC50 was 200 to 1000 nM.

**Q.** Which EC50 does the source give for `O=C(Nc1c[nH]c2cc(F)c(F)cc12)c1ccc(OC(F)(F)F)c(Cl)c1` [Compound 114, 3-chloro-N-(5,6-difluoro-1H-indol-3-yl)-4-(trifluoromethoxy)benzamide] here?
**A.** The EC50 was 200 to 1000 nM.

**Q.** With `O=C(Nc1c[nH]c2cc(F)c(F)cc12)c1cccc(OC(F)(F)C(F)F)c1` [Compound 117, N-(5,6-difluoro-1H-indol-3-yl)-3-(1,1,2,2-tetrafluoroethoxy)benzamide] as the compound, how does the EC50 read?
**A.** Its EC50 is 200 to 1000 nM.

**Q.** Which EC50 does the source give for `O=C(Nc1c[nH]c2cc(F)c(F)cc12)c1cccc(OC2CCOCC2)n1` [Compound 124, N-(5,6-difluoro-1H-indol-3-yl)-6-(oxan-4-yloxy)pyridine-2-carboxamide] here?
**A.** The EC50 was 5000 to 100000 nM.

**Q.** For `O=C(Nc1c[nH]c2cc(F)c(F)cc12)c1ccc(OC2CC(F)(F)C2)cc1` [Compound 109, N-(5,6-difluoro-1H-indol-3-yl)-4-(3,3-difluorocyclobutoxy)benzamide], which EC50 is on record?
**A.** The EC50 was 200 to 1000 nM.

**Q.** How did the EC50 turn out when `O=C(NCc1ccc(C(=O)Nc2c[nH]c3cc(F)c(F)cc23)cc1)OCc1cccnc1` [Compound 123, (pyridin-3-yl)methyl N-({4-[(5,6-difluoro-1H-indol-3-yl)carbamoyl]phenyl}methyl)carbamate] was run?
**A.** The EC50 was 1000 to 5000 nM.

**Q.** Which EC50 does the source give for `Cc1cc(C(=O)Nc2c[nH]c3cc(F)c(F)cc23)ccc1OCCCC(F)(F)F` [Compound 155, N-(5,6-difluoro-1H-indol-3-yl)-3-methyl-4-(4,4,4-trifluorobutoxy)benzamide] here?
**A.** Its EC50 is 40 to 200 nM.
